Experimental data as given in patent publication US20120135952A1, “BUTYRIC ACID SALT OF N,N-DIMETHYL IMIDOCARBON IMIDIC DIAMIDE, METHOD OF PREPARING SAME, AND PHARMACEUTICAL COMPOSITIONS AND COMBINATIONS CONTAINING SAME” (Hanall Biopharma Co., Ltd., priority 2009, published 2012).
Where a name gives a salt, the structure may show the parent alone. Read-outs that look alike come from different tables or passages of the source.

Legend:
[1] = test system: lung cancer-derived A549 cells; assay: MTT assay, cancer cell viability and growth inhibition (A549); details: for IC50: read-out: GROWTH INHIBITORY CONCENTRATION (GIC50), A549, 72 hours, MTT; for CELLULAR VIABILITY (%): 72 hours, relative to untreated cells
Description: (§1) Human breast cancer-derived MCF7 cells and lung cancer-derived A549 cells were used as a test system.
(§2) MCF7 cells and A549 cells cultured in a DMEM containing 10% fetal bovine serum were respectively dispensed at a cell density of about 5×10^3 cells/well on a 96-well plate, followed by culturing for about 24 hours.
(§3) The resulting formazane crystal was dissolved in dimethyl sulfoxide (DMSO), and absorbance of the solution was measured at 560 nm.

[2] = test system: Human breast cancer-derived MCF7 cells; details: 72 h
Description: as §1, §2, §3

[3] = test system: Human breast cancer-derived MCF7 cells; assay: MTT assay, cancer cell viability and growth inhibition (MCF7); details: for IC50: read-out: GROWTH INHIBITORY CONCENTRATION (GIC50), MCF7, 72 hours, MTT; for CELLULAR VIABILITY (%): 72 hours, relative to untreated cells
Description: as §1, §2, §3

[4] = test system: lung cancer-derived A549 cells; details: human, 72 h
Description: as §1, §2, §3

IC50 [1] | IC50 [3] | Structure (SMILES) | CELLULAR VIABILITY (%) ([2]; 2 mM) | CELLULAR VIABILITY (%) ([2]; 10 mM) | CELLULAR VIABILITY (%) ([4]; 2 mM) | CELLULAR VIABILITY (%) ([4]; 10 mM) | CELLULAR VIABILITY (%) ([1]; A549, 2 mM, hydrochloride) | CELLULAR VIABILITY (%) ([1]; A549, 10 mM, hydrochloride) | CELLULAR VIABILITY (%) ([3]; MCF7, 2 mM, hydrochloride) | CELLULAR VIABILITY (%) ([3]; MCF7, 10 mM, hydrochloride) | CELLULAR VIABILITY (%) ([1]; A549, 2 mM) | CELLULAR VIABILITY (%) ([1]; A549, 10 mM) | CELLULAR VIABILITY (%) ([1]; A549, 10 mM, listed as metformin butyrate) | CELLULAR VIABILITY (%) ([3]; MCF7, 2 mM) | CELLULAR VIABILITY (%) ([3]; MCF7, 10 mM) | CELLULAR VIABILITY (%) ([3]; MCF7, 10 mM, listed as metformin butyrate)
5.2 mM | 2.2 mM | CCCC(=O)O [Butyric acid, butyric acid] | 53.9% | 22.3% | 78.6% | 28.3% |  |  |  |  |  |  |  |  |  | 
3.6 mM | > 10 mM | CN(C)C(=N)N=C(N)N [Metformin hydrochloride, metformin hydrochloride] |  |  |  |  | 63.5% | 39.6% | 86.5% | 73.6% |  |  |  |  |  | 
2.5 mM | 1.6 mM | CN(C)C(=N)NC(=N)N [Metformin butyrate, N,N-dimethyl imidodicarbonimidic diamide butyrate] |  |  |  |  |  |  |  |  | 57.7% | 11.7% | less than 20% | 45.5% | 19.9% | less than 20%
